Data from patent EP2276483B1, “SOLID FORMS COMPRISING (+)-2-[1-(3-ETHOXY-4-METHOXYPHENYL)-2-METHYLSULFONYLETHYL]-4-ACETYLAMINOISOINDOLINE-1,3-DIONE, COMPOSITIONS THEREOF, AND USES THEREOF” (CELGENE CORPORATION, priority 2008, dated 2009).
Values after ≈ are worked out from the molar mass of the structure shown.

How the values were obtained:
LTB4 = assay: fMLF-induced LTB4 production in neutrophils; format: cell-based; details: Neutrophil; human neutrophils; 1 µM fMLF
Procedure: N-formyl-methionine-leucine-phenylalanine (fMLF) is a bacterially derived peptide that activates neutrophils to rapidly degranulate, migrate, adhere to endothelial cells, and release leukotriene LTB4, a product of arachidonic acid metabolism and itself a neutrophil chemoattractant. Compounds were tested for the ability to block fMLF-induced neutrophil LTB4 production as previously described (Hatzelmann and Schudt, 2001, J. Pharm. Exp. Ther., 297:267-279), with the following modifications. Neutrophils were isolated as described above and resuspended in phosphate-buffered saline without calcium or magnesium (BioWhittaker) containing 10 mM HEPES pH 7.2 and plated in 96-well tissue culture plates at a concentration of 1.7 x 10^6 cells/well. Cells were treated with 50 µM thimerosal (Sigma)/1 mM CaCl2/1 mM MgCl2 for 15 minutes at 37°C 5% CO2, then treated with compounds at 1000, 200, 40, 8, 1.6, 0.32, 0.064, and 0 nM in a final DMSO concentration of 0.01 % in duplicate for 10 minutes. Neutrophils were stimulated with 1 µM fMLF for 30 minutes, then lysed by the addition of methanol (20% final concentration) and frozen in a dry ice/isopropanol bath for 10 minutes. Lysates were stored at -70°C until the LTB4 content was measured by competitive LTB4 ELISA (R&D Systems).

[1] = biological target: T1, PDE5 from human platelets (Homo sapiens, UniProt O76074); assay: PDE5 enzyme assay; format: biochemical; details: for PDE Specificity Ratio PDE4/PDE5: from above data
T1 construct: PDE5 from human platelets; from tissue; host or cells: human platelets

[2] = Aqueous equilibrium solubility in pH 7.4 buffer; format: physicochemical; details: thermodynamic from solid; pH 7.4 aqueous buffer, room temperature; read-out: Measured solubility
Procedure: Equilibrium solubilities were measured in pH 7.4 aqueous buffer. The pH 7.4 buffer was prepared by adjusting the pH of a 0.07 M NaH2PO4 solution to 7.4 with 10 N NaOH. The ionic strength of the solution was 0.15. At least 1 mg of powder was combined with 1 ml of buffer to make >1 mg/ml mixture. These samples were shaken for >2 hours and left to stand overnight at room temperature. The samples were then filtered through a 0.45-µm Nylon syringe filter that was first saturated with the sample. The filtrate was sampled twice, consecutively. The filtrate was assayed by HPLC against standards prepared in 50% methanol.

[3] = biological target: PDE7 purified from Hut78 human T cells (Homo sapiens, UniProt Q13946); assay: PDE7 enzyme assay; format: biochemical
PDE7 purified from Hut78 human T cells, sequence (Q13946 whole entry): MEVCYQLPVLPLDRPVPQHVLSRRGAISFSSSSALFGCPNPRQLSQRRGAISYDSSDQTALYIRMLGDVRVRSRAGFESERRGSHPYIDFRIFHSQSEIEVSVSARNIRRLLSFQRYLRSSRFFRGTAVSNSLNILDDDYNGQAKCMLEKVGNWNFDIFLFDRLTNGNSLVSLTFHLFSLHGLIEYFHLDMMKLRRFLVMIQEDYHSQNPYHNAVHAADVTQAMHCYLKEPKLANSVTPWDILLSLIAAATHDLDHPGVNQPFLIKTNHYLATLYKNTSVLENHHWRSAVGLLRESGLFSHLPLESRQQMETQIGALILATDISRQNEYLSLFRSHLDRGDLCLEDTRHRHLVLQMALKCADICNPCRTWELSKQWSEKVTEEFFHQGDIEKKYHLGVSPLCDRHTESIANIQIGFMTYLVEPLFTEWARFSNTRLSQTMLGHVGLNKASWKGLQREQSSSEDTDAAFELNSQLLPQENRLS
Procedure: PDE7 is a cAMP-selective PDE expressed mainly in T cells and in skeletal muscle. T cell-derived cytokines such as IL-2 and IFN-γ are potentially regulatable via PDE7 inhibition. […] Compounds were tested against the PDE7 preparation in the presence of 10 nM cAMP as described for PDE4 in Table 1.

PDE4 (from U937 cells) = assay: PDE4 (U937 cell-derived) enzyme assay; format: biochemical, human; details: 1 µM cAMP
Procedure: PDE4 enzyme was purified from U937 human monocytic cells by gel filtration chromatography as previously described (Muller et al., 1998, Bioorg. & Med. Chem. Lett. 8:2669-2674). Phosphodiesterase reactions were carried out in 50 mM Tris HCl pH 7.5, 5 mM MgCl2, 1 µM cAMP, 10 nM [^3H]-cAMP for 30 min at 30°C, terminated by boiling, treated with 1 mg/ml snake venom, and separated using AG-1XS ion exchange resin (BioRad) as described (Muller et al., 1998, Bioorg. & Med. Chem. Lett. 8:2669-2674). Reactions consumed less than 15% of available substrate. Table 1. PDE Specificity

cAMP [4] = assay: PGE2-induced cAMP elevation in human PBMC; format: cell-based; details: PGE2 (10µM)
Procedure: (§1) Prostaglandin E2 (PGE2) binds to prostanoid receptors on monocytes, T cells and other leukocytes and consequently elevates intracellular cAMP levels, resulting in inhibition of cellular responses. The combination of PGE2 and a PDE4 inhibitor synergistically elevates cAMP levels in these cell types, and the elevation of cAMP in PBMC caused by PDE4 inhibitors in the presence of PGE2 is proportional to the inhibitory activity of that PDE4 inhibitor. Intracellular cAMP was measured in human PBMC as follows. PBMC were isolated as described above and plated in 96-well plates at 1 x 10^6 cells per well in RPMI-1640. The cells were pre-treated with compounds at 100, 10, 1, 0.1, 0.01, and 0 µM in a final concentration of 2% DMSO in duplicate at 37°C in a humidified incubator at 5% CO2 for one hour. The cells were then stimulated with PGE2 (10µM) (Sigma) for 1h. The cells were lysed with HCl, 0.1 N final concentration to inhibit phosphodiesterase activity and the plates were frozen at -20°C. The cAMP produced was measured using cAMP (low pH) Immunoassay kit (R&D Systems).

human PDE2 = human PDE2 (Homo sapiens, UniProt O00408); assay: PDE2 enzyme assay; format: biochemical; details: for PDE Specificity Ratio PDE4/PDE2: from above data
human PDE2, sequence (O00408 whole entry): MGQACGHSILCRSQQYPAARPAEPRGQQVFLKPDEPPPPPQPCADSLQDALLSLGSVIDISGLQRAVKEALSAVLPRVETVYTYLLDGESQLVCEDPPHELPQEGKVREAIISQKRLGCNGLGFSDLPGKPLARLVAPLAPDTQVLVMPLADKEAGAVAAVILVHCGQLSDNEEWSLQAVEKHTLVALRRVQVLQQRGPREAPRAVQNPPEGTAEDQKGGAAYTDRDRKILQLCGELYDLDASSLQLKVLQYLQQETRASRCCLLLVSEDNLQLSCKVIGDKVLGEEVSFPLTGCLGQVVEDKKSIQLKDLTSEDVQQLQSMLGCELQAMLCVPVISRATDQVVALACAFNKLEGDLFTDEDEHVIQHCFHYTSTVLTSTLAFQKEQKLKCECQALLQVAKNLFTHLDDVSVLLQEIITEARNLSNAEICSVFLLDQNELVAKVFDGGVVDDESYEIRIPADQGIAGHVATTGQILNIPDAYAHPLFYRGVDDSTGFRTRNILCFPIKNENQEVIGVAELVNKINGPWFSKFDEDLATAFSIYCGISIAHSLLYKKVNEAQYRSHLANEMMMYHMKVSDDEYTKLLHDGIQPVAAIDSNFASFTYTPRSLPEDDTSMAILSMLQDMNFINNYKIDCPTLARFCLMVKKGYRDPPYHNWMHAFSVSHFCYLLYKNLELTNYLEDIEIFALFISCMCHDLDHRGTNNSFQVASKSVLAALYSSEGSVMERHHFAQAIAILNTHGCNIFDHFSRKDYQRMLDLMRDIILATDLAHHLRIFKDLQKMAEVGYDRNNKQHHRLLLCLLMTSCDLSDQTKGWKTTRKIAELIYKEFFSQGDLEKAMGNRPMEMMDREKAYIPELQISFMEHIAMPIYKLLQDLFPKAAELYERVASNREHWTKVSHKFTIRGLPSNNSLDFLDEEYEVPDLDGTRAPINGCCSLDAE

[5] = biological target: PDE3 from human platelets (Homo sapiens, UniProt Q14432); assay: PDE3 enzyme assay; format: biochemical; details: for PDE Specificity Ratio PDE4/PDE3: from above data
PDE3 from human platelets, sequence (Q14432 whole entry): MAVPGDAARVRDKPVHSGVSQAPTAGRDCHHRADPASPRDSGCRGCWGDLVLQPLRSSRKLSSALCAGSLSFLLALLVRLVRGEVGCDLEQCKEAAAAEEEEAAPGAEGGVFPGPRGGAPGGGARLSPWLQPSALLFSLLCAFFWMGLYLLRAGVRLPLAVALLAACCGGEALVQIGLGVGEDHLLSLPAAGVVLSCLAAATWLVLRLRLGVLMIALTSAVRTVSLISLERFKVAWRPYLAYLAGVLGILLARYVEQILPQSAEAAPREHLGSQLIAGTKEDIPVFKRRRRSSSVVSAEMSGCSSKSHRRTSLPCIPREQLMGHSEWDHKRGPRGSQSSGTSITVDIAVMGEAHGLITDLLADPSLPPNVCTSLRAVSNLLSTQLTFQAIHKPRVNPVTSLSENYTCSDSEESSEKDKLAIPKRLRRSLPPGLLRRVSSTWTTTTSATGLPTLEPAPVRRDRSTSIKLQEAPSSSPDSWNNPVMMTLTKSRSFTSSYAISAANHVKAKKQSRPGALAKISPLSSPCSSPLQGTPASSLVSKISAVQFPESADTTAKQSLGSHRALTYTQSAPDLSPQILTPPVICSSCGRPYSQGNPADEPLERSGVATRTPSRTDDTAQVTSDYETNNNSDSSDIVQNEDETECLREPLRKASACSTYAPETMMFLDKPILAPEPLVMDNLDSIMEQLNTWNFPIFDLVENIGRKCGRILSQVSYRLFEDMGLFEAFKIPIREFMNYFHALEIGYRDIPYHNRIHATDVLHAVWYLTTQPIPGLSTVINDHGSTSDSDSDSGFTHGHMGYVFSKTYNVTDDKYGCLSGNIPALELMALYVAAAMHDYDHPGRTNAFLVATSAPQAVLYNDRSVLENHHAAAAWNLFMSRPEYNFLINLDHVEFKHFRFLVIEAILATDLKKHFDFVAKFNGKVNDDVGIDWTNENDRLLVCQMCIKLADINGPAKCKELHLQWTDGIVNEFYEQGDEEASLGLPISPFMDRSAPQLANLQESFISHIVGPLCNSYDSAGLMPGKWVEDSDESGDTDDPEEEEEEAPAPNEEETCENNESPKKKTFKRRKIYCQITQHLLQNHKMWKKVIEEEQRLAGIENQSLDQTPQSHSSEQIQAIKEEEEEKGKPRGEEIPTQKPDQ

bovine PDE1 = assay: PDE1 enzyme assay; format: biochemical; details: for PDE Specificity Ratio PDE4/PDE1: from above data
cAMP [6] = assay: PGE2-induced cAMP elevation in human neutrophils; format: cell-based; details: Neutrophil
Procedure: as §1
Elevation of cAMP in human neutrophils was measured as follows. PBMC were removed from source leukocytes (Sera-Tec Biologicals) by centrifugation on Ficoll-Paque Plus (Amersham Pharmacia). […]

[7] = biological target: T2, PDE6 from bovine retinal rod outer segments (Bos taurus, UniProt P11541+P23439); assay: PDE6 enzyme assay; format: biochemical
T2 construct: PDE6 from bovine retinal rod outer segments; from tissue; host or cells: bovine retinal rod outer segments
T2 sequence (P11541 2-856 limits assumed): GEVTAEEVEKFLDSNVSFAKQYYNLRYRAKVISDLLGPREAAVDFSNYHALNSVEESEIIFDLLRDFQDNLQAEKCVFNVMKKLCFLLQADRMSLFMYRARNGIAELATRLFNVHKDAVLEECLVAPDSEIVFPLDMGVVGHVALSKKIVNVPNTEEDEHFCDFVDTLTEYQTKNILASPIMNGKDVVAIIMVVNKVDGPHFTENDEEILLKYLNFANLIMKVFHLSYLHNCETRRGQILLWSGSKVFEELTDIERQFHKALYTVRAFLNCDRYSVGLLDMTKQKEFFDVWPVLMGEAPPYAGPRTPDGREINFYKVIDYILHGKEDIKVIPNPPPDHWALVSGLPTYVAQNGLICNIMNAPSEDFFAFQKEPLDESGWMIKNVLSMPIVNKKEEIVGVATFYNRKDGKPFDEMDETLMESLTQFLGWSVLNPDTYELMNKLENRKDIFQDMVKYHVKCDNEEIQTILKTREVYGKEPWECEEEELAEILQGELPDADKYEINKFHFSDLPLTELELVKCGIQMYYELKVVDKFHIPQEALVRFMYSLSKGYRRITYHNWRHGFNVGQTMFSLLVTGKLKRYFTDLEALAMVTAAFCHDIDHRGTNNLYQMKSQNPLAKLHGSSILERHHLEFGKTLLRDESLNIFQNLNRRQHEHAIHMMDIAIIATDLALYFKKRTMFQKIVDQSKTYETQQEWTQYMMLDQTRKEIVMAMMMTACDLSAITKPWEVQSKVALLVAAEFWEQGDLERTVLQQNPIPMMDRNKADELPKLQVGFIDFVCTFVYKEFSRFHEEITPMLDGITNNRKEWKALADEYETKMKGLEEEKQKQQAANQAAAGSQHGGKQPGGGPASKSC
T2 sequence (P23439 2-850 limits assumed): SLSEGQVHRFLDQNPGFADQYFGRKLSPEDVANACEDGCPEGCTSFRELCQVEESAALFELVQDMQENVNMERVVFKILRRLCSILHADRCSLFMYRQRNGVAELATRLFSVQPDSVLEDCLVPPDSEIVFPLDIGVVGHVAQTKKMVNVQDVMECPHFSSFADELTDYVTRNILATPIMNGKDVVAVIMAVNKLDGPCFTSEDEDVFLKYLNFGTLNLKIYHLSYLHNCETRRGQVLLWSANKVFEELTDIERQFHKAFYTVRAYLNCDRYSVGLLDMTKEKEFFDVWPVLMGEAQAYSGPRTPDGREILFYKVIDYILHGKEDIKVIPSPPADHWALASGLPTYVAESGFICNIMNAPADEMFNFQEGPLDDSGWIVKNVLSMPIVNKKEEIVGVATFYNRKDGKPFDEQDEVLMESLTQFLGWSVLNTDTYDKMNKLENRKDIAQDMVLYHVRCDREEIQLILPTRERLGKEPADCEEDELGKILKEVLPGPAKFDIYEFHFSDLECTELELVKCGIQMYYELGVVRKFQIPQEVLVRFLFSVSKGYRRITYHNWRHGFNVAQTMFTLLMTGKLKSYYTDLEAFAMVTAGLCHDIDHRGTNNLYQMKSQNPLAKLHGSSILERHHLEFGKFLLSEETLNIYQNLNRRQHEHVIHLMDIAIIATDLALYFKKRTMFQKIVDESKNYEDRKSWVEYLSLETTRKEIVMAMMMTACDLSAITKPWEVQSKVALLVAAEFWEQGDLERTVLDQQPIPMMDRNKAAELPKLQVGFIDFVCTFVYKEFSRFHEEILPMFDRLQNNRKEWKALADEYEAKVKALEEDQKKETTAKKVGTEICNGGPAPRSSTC

PDE5 (% inhib at 10 µM) ([1]; 10 µM) [%]	PDE2(% inhib at 10 µM) (human PDE2; 10 µM) [%]	PDE3 (% inhib at 10 µM) ([5]; 10 µM) [%]	PDE6 (% inhib at 10 µM) ([7]; 10 µM) [%]	PDE Specificity Ratio PDE4/PDE6 ([7]; from above data) [fold]	SMILES	IC50 (LTB4) [nM]	PDE Specificity Ratio PDE4/PDE5 [1] [fold]	inhibition at 10 µM ([1]; read-out: PDE5 (% inhib at 10 µM)) [%]	solubility [2] [µg/mL]	IC50 ([3]; 10 nM cAMP) [nM]	PDE Specificity Ratio PDE7 IC50/PDE4 IC50 ([3]; from above data) [fold]	IC50 (PDE4 (from U937 cells)) [nM]	EC50 (cAMP [4]) [nM]	PDE Specificity Ratio PDE4/PDE2 (human PDE2) [fold]	inhibition at 10 µM (human PDE2; read-out: PDE2(% inhib at 10 µM)) [%]	PDE Specificity Ratio PDE4/PDE3 [5] [fold]	inhibition at 10 µM ([5]; read-out: PDE3 (% inhib at 10 µM)) [%]	PDE1 (% inhib at 10 µM) (bovine PDE1) [%]	PDE Specificity Ratio PDE4/PDE1 (bovine PDE1) [fold]	EC50 (cAMP [6]) [nM]
–	–	–	–	–	CCOc1cc(C(CS(C)(=O)=O)N2C(=O)c3cccc(NC(C)=O)c3C2=O)ccc1OC (racemic) [Racemic Compound, 2-[1-(3-Ethoxy-4-methoxyphenyl)-2-methylsulfonylethyl]-4-acetylaminoisoindoline-1,3-dione]	20.1	>12000	3	3.4 (≈ 7.38 µM)	22100	270	81.8	3090	>800	19	>670	21	9	>2700	12600
-9	10	31	10	>250	CCOc1cc([C@H](CS(C)(=O)=O)N2C(=O)c3cccc(NC(C)=O)c3C2=O)ccc1OC [Compound B]	–	>39000	–	–	–	–	611	–	>260	–	>45	–	27	>50	–
